Measured values: patent US9834581B2, “Cell penetrating peptides for intracellular delivery of molecules” (AADIGEN, LLC, priority 2012, dated 2017)
Like-named read-outs stand apart in the source and are kept apart here. *1 amine or outer side, *2 acyl side, *3 side chain or, on linkers, in order; H or OH if unused. Where a SMILES comes first, the peptide text is derived from it. [ ]: non-standard residue; d: D form. Cysteamide = C(CS[*:3])N[*:1]; βAla = NCCC(=O)O

How the values were obtained:
[1] = tested on: Hela cells
Experimental: (§7) Adherent HS68 fibroblasts, HeLa, PC3, CEM-SS, U20S, MCF-7, and HEK2 cell lines (from American Type Culture Collection (ATCC)), as well as MEF and PBMC, were cultured in Dulbecco's Modified Eagle's Medium supplemented with 2 mM glutamine, 1% antibiotics (streptomycin 10,000 μg/ml, penicillin, 10,000 IU/ml) and 10% (w/v) foetal calf serum (FCS), at 37° C. in a humidified atmosphere containing 5% CO2. Stock solutions of VEPEP-4/peptide particles were prepared by complexing 1 μM peptide with VEPEP-4 peptides at a molar ratio of 1/20 for 30 min at 37° C. […] 150,000 cells seeded in a 35 mm dish the day prior transfection, were grown to 60% confluence and overlaid with 200 μl of preformed complexes, incubated for 3-5 min, then 400 μl of DMEM were added. After 30 min. incubation at 37° C., 1 ml of fresh DMEM containing 16% foetal calf serum (FCS) was added in order to reach a final FCS concentration of 10%, without removing the overlay of VEPEP-4/peptide complexes. Cells were returned to the incubator for 24 hrs. For CDK2 derived peptides cell proliferation was monitored after 24 and 48 hrs. […] Data reported are an average of 3 or 4 distinct experiments.

[2] = tested on: MCF7 cells
Experimental: as §7

[3] = tested on: HEK2; experiment: cells; type: cell-based
Experimental: (§1) Adherent HS68 fibroblasts, HeLa, PC3, CEM-SS, U20S, MCF-7, and HEK2 cell lines (from American Type Culture Collection (ATCC)), as well as MEF and PBMC, were cultured in Dulbecco's Modified Eagle's Medium supplemented with 2 mM glutamine, 1% antibiotics (streptomycin 10,000 μg/ml, penicillin, 10,000 IU/ml) and 10% (w/v) foetal calf serum (FCS), at 37° C. in a humidified atmosphere containing 5% CO2. Stock solutions of VEPEP-4/peptide particles were prepared by complexing 1 μM peptide with VEPEP-4 peptides at a molar ratio of 1/20 for 30 min at 37° C. Lower concentrations of VEPEP-4-carrier/peptide (from 500 nM to 1 μM) were obtained by serial dilution of the stock complexes in PBS, in order to preserve the same VEPEP-4-carrier/peptide ratio. 150,000 cells seeded in a 35 mm dish the day prior transfection, were grown to 60% confluence and overlaid with 200 μl of preformed complexes, incubated for 3-5 min, then 400 μl of DMEM were added. After 30 min. incubation at 37° C., 1 ml of fresh DMEM containing 16% foetal calf serum (FCS) was added in order to reach a final FCS concentration of 10%, without removing the overlay of VEPEP-4/peptide complexes. Cells were returned to the incubator for 24 hrs. For CDK2 derived peptides cell proliferation was monitored after 24 and 48 hrs. For peptide-targeting integrase, HIV proliferation was analyzed on activated PBMC cells after 3 and 5 days. Data reported are an average of 3 or 4 distinct experiments.
(§2) VEPEP-4 peptides have been used for the delivery of different small fluorescent hydrophobic and charged molecules as well as doxorubicin on different cell lines including primary cell lines and challenging cell lines. VEPEP-4 peptides form stable particles with small aromatic molecules including doxorubicin. Effect of VEPEP-4 mediated delivery of doxorubicin has been investigated on cancer cell viability. […] The impact of carrier peptides to improve cellular uptake of small molecule drugs was estimated by following inhibition of proliferation of cancer cells.

[4] = tested on: Hela; experiment: cells
Experimental: Cells were returned to the incubator for 24 hrs.
Effect of VEPEP-4 mediated delivery of doxorubicin has been investigated on cancer cell viability.

[5] = tested on: Peptide (C4); experiment: Fluorescence titration of VEPEP-4 binding to peptide cargo
Experimental: (§3) Fluorescence experiments were performed on a PTI spectrofluorimeter at 25° C. in a NaCl 154 mM buffer. Intrinsic Trp-fluorescence of VEPEP-4 was excited at 290 nm and emission spectrum was recorded between 310 and 400 nm, with a spectral band-pass of 2 and 8 nm for excitation and emission, respectively. FITC-fluorescence of labelled-peptide was excited at 492 nm and emission recorded between 500 and 580 nm. For VEPEP-4/peptide interaction, 0.5 μM of FITC-labelled peptide was titrated by increasing concentrations of VEPEP-4. All measurements were corrected for the dilution and curve fitting were performed by using Grafit software (Erithacus).
(§4) VEPEP-4i (SEQ ID No: 1) and VEPEP-4j (SEQ ID No: 2) peptides form stable complexes with peptides. The binding of cargos to VEPEP-4 was monitored by fluorescence spectroscopy using the both intrinsic Trp group of VEPEP-4 (4 Trp-residues) and extrinsic fluorescently labeled cargoes (using Cy5 or FITC). Curve fitting reveal that VEPEP-4 strongly binds the different cargoes with dissociation constant in the nanomolar range (Table 1 and FIG. 1).

[6] = tested on: Cyclic peptide (PC4); experiment: Fluorescence titration of VEPEP-4 binding to cyclic peptide cargo
Experimental: as §3, §4

[7] = Fluorescence titration of VEPEP-4 binding to small molecule cargo
Experimental: as §3
VEPEP-4 peptides also form stable particles with small aromatic molecules including daunomycin, Paclitaxel, doxorubicin, porphyrin and charged molecules including nucleotide, nucleoside and peptide-analogue of nucleic acids or fluorescent dyes. The dissociation constant for small hydrophobic molecule ranges between 0.05 to 2 μM, depending on the nature of the dyes and of the peptides.
Binding of small molecule cargoes has been investigated in detail depending on the nature of the SMH. Several hydrophobic and charges molecules have been use (Daunomycin, Paclitaxel, doxorubicin, porphyrin) and charged molecules (nucleotide, nucleoside and fluorescent dyes).

[8] = tested on: MCF7; type: cell-based, Human
Experimental: as §1, §2

[9] = tested on: MEF; experiment: VEPEP-4 mediated delivery of fluorescently labelled peptide (fluorescence microscopy or FACS); type: cell-based, Mouse; conditions: uptake of fluorescently labelled peptide cargo
Experimental: as §1
(§5) VEPEP-4 peptides have been used for the delivery of different peptides into different cell lines, including primary cell lines, stem cell lines and challenging cell lines. Peptide delivery was monitored using three approaches, fluorescence spectroscopy and monitoring biological responses (anti proliferation and anti viral responses).
(§6) 1—Fluorescently labelled peptide was visualized in the different cell lines using fluorescence microscopy or FACS sorting (Table 3). In most of the cell lines, the uptake of Cy-5 labelled peptides is more than 70% of the cells.

[10] = tested on: CEM-SS; experiment: as above; type: cell-based, Human; conditions: uptake of fluorescently labelled peptide cargo
Experimental: as §1, §5, §6

[11] = tested on: HS-68; experiment: as above; type: cell-based, Human; conditions: HS-68, uptake of fluorescently labelled peptide cargo
Experimental: as §1, §5, §6

[12] = tested on: Hela; experiment: as above; type: cell-based, Human; conditions: uptake of fluorescently labelled peptide cargo
Experimental: as §1, §5, §6

[13] = tested on: MCF7; experiment: as above; type: cell-based, Human; conditions: MCF7, uptake of fluorescently labelled peptide cargo
Experimental: as §1, §5, §6

[14] = tested on: PBMC; experiment: as above; type: cell-based, Human; conditions: uptake of fluorescently labelled peptide cargo
Experimental: as §1, §5, §6

[15] = tested on: U2OS; experiment: as above; type: cell-based, Human; conditions: uptake of fluorescently labelled peptide cargo
Experimental: as §1, §5, §6

[16] = tested on: HIV-1LAI; type: cell-based; conditions: for IC50: 1LAI
Experimental: as §1
The anti-HIV activities of the peptides (PC4D, PC4S, PC6D, PC6S) and VEPEP-4/peptides complexes were assayed according to previously described method (Roisin et al, 2004). Phytohemagglutinin-P (PHA-P)-activated peripheral blood mononuclear cells (PBMC) treated by increasing concentrations of peptide (from 100 to 0.1 nM), one hour later, were infected with hundred 50% tissue culture infectious doses (TCID50) per 100,000 cells of the HIV-1-LAI or different resistant strains (Barre-Sinoussi et al, 1983). Viruses were amplified in vitro on PHA-P-activated PBMC. Viral stock was titrated using PHA-P-activated PBMC, and 50% TCID50 were calculated using Kärber's formula (Karber 1931). Samples were maintained throughout the culture, and cell supernatants were collected at day 7 post-infection and stored at −20 C. Viral replication was measured by quantifying RT activity in cell culture supernatants. In parallel, cytotoxicity of the compounds was evaluated in uninfected PHA-P-activated PBMC by colorimetric 3-(4-5 dimethylthiazol-2-yl)2,5 diphenyl tetrazolium bromite (MTT) assay on day 7 (Mossmann 1983). Experiments were performed in triplicate and repeated with another blood donor. […]

| Compound | Binding [5] | Kd [5] | Binding [6] | Kd [6] | Binding ([7]; cargo Doxorubicin) | Kd ([7]; cargo Doxorubicin) | Binding ([7]; cargo FAM-guanosine) | Kd ([7]; cargo FAM-guanosine) | Binding ([7]; cargo porphyrin) | Kd ([7]; cargo porphyrin) | IC50 [3] | IC50 [8] | IC50 [4] | Efficiency [9] | Efficiency [10] | Efficiency [11] | Efficiency [12] | Efficiency [13] | Efficiency [14] | Efficiency [15] | also measured |
| --- | --- | --- | --- | --- | --- | --- | --- | --- | --- | --- | --- | --- | --- | --- | --- | --- | --- | --- | --- | --- | --- |
| CSCC[C@H](NC(=O)[C@H](CCCNC(=N)N)NC(=O)[C@@H](NC(=O)[C@H](CCC(N)=O)NC(=O)[C@H](CCCCN)NC(=O)[C@@H](N)CCCCN)C(C)C)C(=O)N[C@@H](C)C(=O)N[C@@H](Cc1c[nH]cn1)C(=O)N[C@@H](CC(C)C)C(=O)N[C@H](C(=O)N[C@@H](CC(C)C)C(=O)N[C@H](C(=O)O)[C@@H](C)O)C(C)C [C4, KKQVRMAHLVLT] (H-KKQVRMAHLVLT-OH; N-terminus and C-terminus assumed) |  |  |  |  |  |  |  |  |  |  |  |  |  |  |  |  |  |  |  |  | IC50 [1]: 50 ± 15 nM; concentration sufficient to block proliferation ([1]; Hela, C4 delivered by VEPEP-4): 100 nM; IC50 [2]: 60 ± 12 nM; concentration sufficient to block proliferation ([2]; MCF7, C4 delivered by VEPEP-4): 100 nM |
| COc1cccc2c1C(=O)c1c(O)c3c(c(O)c1C2=O)C[C@@](O)(C(=O)CO)C[C@@H]3O[C@H]1C[C@H](N)[C@H](O)[C@H](C)O1 [Doxo, doxorubicin, reference compound] |  |  |  |  |  |  |  |  |  |  |  |  |  |  |  |  |  |  |  |  | IC50 ([3]; HEK2, Free drug, read-out: IC50): 10000 nM; fold more efficient when complexed with VEPEP-4 ([3]; complexed versus free drug, cancer cells of Table 5): 25 fold; IC50 ([4]; Homo sapiens, HeLa): 25000 nM |
| CC(=O)NCCC(=O)N[C@@H](Cc1c[nH]c2ccccc12)C(=O)N[C@@H](Cc1c[nH]c2ccccc12)C(=O)N[C@@H](CCCNC(=N)N)C(=O)N[C@@H](CC(C)C)C(=O)N[C@@H](CCCNC(=N)N)C(=O)N[C@@H](CO)C(=O)N[C@@H](Cc1c[nH]c2ccccc12)C(=O)N[C@@H](Cc1ccccc1)C(=O)N[C@@H](CCCNC(=N)N)C(=O)NCCS [Short 3, X1WWRLRSWFR] (Ac-[βAla]WWRLRSWFR-Cysteamide) | yes | 10 to 20 nM | yes | 50 to 100 nM | yes | 100 nM | yes | 100 nM | yes | 700 nM | 1100 nM | 900 nM | 1200 nM |  |  |  |  |  |  |  |  |
| CC(=O)NCCC(=O)N[C@@H](Cc1c[nH]c2ccccc12)C(=O)N[C@@H](Cc1ccccc1)C(=O)N[C@@H](CCCNC(=N)N)C(=O)N[C@@H](CC(C)C)C(=O)N[C@@H](CO)C(=O)N[C@@H](CC(C)C)C(=O)N[C@@H](CCCNC(=N)N)C(=O)N[C@@H](Cc1ccccc1)C(=O)N[C@@H](Cc1c[nH]c2ccccc12)C(=O)NCCS [Short 4, X1WFRLSLRFW] (Ac-[βAla]WFRLSLRFW-Cysteamide) | yes | 10 to 20 nM | yes | 50 to 100 nM | yes | 10 nM | yes | 70 nM | yes | 600 nM | 500 nM | 500 nM | 600 nM | 67% | 74% | 87% | 58% | 78% | 65% | 65% | IC50 [16]: 0.37 ± 0.1 nM |
| CC(=O)NCCC(=O)N[C@@H](Cc1c[nH]c2ccccc12)C(=O)N[C@@H](Cc1c[nH]c2ccccc12)C(=O)N[C@@H](CCCNC(=N)N)C(=O)N[C@@H](CC(C)C)C(=O)N[C@@H](CO)C(=O)N[C@@H](CC(C)C)C(=O)N[C@@H](CCCNC(=N)N)C(=O)N[C@@H](Cc1c[nH]c2ccccc12)C(=O)N[C@@H](Cc1c[nH]c2ccccc12)C(=O)NCCS [VEPEP-3i, X1WWRLSLRWW] (Ac-[βAla]WWRLSLRWW-Cysteamide) | yes | 10 to 20 nM | yes | 50 to 100 nM | yes | 50 nM | yes | 60 nM | yes | 400 nM | 400 nM | 500 nM | 1200 nM | 84% | 70% | 80% | 65% | 50% | 80% | 78% | IC50 [16]: 0.24 ± 0.1 nM |
| CC(=O)NCCC(=O)N[C@@H](Cc1c[nH]c2ccccc12)C(=O)N[C@@H](Cc1ccccc1)C(=O)N[C@@H](CCCNC(=N)N)C(=O)N[C@@H](CC(C)C)C(=O)N[C@@H](CO)C(=O)N[C@@H](CC(C)C)C(=O)N[C@@H](CCCNC(=N)N)C(=O)N[C@@H](Cc1ccccc1)C(=O)N[C@@H](Cc1c[nH]c2ccccc12)C(=O)N[C@@H](CCCNC(=N)N)C(=O)NCCS [VEPEP-3j, X1WFRLSLRFWR] (Ac-[βAla]WFRLSLRFWR-Cysteamide) | yes | 10 to 20 nM | yes | 50 to 100 nM | yes | 70 nM | yes | 50 nM | yes | 500 nM | 300 nM | 200 nM | 800 nM | 70% | 65% | 80% | 62% | 65% | 80% | 81% | IC50 [16]: 0.17 ± 0.07 nM |
| TWFTEWFT (Ac-TWFTEWFT-Cysteamide; SMILES CC(=O)N[C@H](C(=O)N[C@@H](Cc1c[nH]c2ccccc12)C(=O)N[C@@H](Cc1ccccc1)C(=O)N[C@H](C(=O)N[C@@H](CCC(=O)O)C(=O)N[C@@H](Cc1c[nH]c2ccccc12)C(=O)N[C@@H](Cc1ccccc1)C(=O)N[C@H](C(=O)NCCS)[C@@H](C)O)[C@@H](C)O)[C@@H](C)O) [PC4S, scrambled peptide, control of PC4D, reference compound] |  |  |  |  |  |  |  |  |  |  |  |  |  |  |  |  |  |  |  |  | anti viral activity ([16]; scrambled peptide, PBMC infected by HIV-1LAI): do not show any anti viral activity |
